Data: patent US6331555A, “Treatment of platelet derived growth factor related disorders such as cancers” (priority 1999, dated 2001)

Biological target: PDGFR (Homo sapiens, UniProt P09619)
Experiment: PDGF-stimulated receptor phosphorylation in U1242 cells, ELISA
Format: cell-based
Set-up: U1242 (PDGF-β receptor); host or cells: U1242 MG glioma cells
Settings: not given
Method: For ELISA assays, cells were grown to 80-90% confluency in growth medium and seeded in 96-well tissue culture plates in 0.5% serum at 25,000 to 30,000 cells per well. After overnight incubation in 0.5% serum-containingmedium, cells were changed to serum-free medium and treated with test compound for 2 hr in a 5% CO2, 37° C. incubator. Cells were then stimulated with ligand for 5-10 min followed by lysis with HNTG (20 mM Hepes, 150 mM NaCl, 10% glycerol, 5 mM EDTA, 5 mM Na3 VO4 0.2% Triton X-100, and 2 mM NaPyr). […] Lysates were incubated with shaking for 1 hr at room temperature. The plates were washed with TBST four times and then incubated with polyclonol anti-phosphotyrosine antibody at room temperature for 30 min. Excess anti-phosphotyrosine antibody was removed by rinsing the plate with TBST four times. Goat anti-rabbit IgG antibody was added to the ELISA plate for 30 min at room temperature followed by rinsing with TBST four more times.
U1242 MG cells were plated in 96-well plates at a concentration of 5×10^4 cells/well in cultured media containing 0.5% FBS. The cells were incubated for 24 hours. The cells were then treated with a particular compound for 2 hours followed by the addition of 100 ng/ml PDGF-BB and incubation for 10 minutes.
Cells were lysed in 0.2 M Hepes, 0.15 M NaCl, 10% V/V glycerol, 0.04% Triton X-100, 5 mM EDTA, 5 MM Na^+ vanadate and […] Na^+ pyrophosphate. Cell lysates were then added to an ELISA plate coated with an anti-PDGF receptor antibody (Genzyme). ELISA plates were coated at […] of antibody/well in […] of PBS for 18 hours at 4° C. prior to the addition of the lysate.
The lysate was incubated in the coated plates for 1 hour and then washed four times in TBST (35 mM Tris-HCl pH 7.0, 0.15 M NaCl, 0.1% Triton X-100). Anti-phosphotyrosine antibody ([…] in PBS) was added and the mixture was incubated for 30 minutes at room temperature. The wells were then washed four times in TBST, a secondary antibody conjugated to POD (TAGO) was added to each well, and the treated wells were incubated for 30 minutes at room temperature. The wells were then washed four times in TBST, ABTS/H2 O2 solution was added to each well and the wells were incubated for two minutes. Absorbance was then measured at 410 nm.

PDGFR, sequence (P09619 33-1106): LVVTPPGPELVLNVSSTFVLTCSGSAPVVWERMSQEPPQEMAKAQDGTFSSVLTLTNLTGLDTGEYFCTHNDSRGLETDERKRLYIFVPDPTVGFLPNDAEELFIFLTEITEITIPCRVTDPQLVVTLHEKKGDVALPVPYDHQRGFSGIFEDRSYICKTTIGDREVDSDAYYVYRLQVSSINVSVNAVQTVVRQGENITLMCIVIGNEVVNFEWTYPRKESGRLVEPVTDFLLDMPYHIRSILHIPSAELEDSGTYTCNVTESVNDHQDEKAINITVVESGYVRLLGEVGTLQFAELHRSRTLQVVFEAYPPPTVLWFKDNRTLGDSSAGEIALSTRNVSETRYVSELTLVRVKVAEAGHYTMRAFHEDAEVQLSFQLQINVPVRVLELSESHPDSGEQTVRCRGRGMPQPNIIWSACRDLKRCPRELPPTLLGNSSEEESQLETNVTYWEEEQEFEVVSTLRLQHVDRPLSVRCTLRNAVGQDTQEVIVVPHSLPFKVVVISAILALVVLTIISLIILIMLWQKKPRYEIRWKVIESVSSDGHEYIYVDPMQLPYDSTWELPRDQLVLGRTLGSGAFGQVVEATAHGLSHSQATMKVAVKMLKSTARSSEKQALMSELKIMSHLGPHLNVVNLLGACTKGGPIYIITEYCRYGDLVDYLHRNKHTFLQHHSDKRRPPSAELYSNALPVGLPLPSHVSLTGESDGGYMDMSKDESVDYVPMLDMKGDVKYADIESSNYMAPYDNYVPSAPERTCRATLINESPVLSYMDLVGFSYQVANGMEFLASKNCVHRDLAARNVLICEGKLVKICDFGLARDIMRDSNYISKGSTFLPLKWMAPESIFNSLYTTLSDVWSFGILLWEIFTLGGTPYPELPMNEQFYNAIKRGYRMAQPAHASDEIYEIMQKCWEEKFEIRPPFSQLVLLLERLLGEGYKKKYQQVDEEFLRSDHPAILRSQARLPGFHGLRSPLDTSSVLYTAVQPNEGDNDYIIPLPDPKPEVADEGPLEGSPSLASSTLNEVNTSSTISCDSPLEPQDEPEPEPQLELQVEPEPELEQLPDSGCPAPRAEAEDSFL

Row | Compound | IC50 [µM]
1 | N#CC(=Cc1c[nH]c2ccccc12)C(N)=C(C#N)C#N [Compound D12] | 60

Same assay, conditions: 100 ng/ml PDGF-BB; read-out: ELISA P-TYR U1242 IC50

Row | IC50 [µM] | Compound
2 | 125 | N#CC(C(=O)Nc1ccc(C(F)(F)F)cc1)=C(O)Cc1ccccc1 [Compound B17, 2-Butenamide, 2-cyano-3-hydroxy-4-phenyl-N-[(4-trifluoromethyl)phenyl]]
3 | 180 | N#CC(C(=O)Nc1ccc(C(F)(F)F)cc1)=C(O)C1CCCCC1 [Compound B13, 2-Propenamide, 2-cyano-3-hydroxy-3-cyclohexyl-N-[(4-trifluoromethyl)phenyl]]
4 | 180 | CC(O)=C(C#N)C(=O)Nc1ccc([N+](=O)[O-])cc1 [Compound B10]
5 | 180 | CC1(C)C(C(O)=C(C#N)C(=O)Nc2ccc(C(F)(F)F)cc2)C1(C)C [Compound B14, 2-cyano-3-hydroxy-3-(2,2,3,3-tetramethylcyclopropyl)-propanol-4-(trifluoromethyl)anilide]
6 | 120 | N#CC(C(=O)Nc1ccc(C(F)(F)F)cc1)=C(O)c1c(F)c(F)c(F)c(F)c1F [Compound B15, 2-Propenamide, 2-cyano-3-hydroxy-3-(pentafluorophenyl)-N-[(4-trifluoromethyl)phenyl]]
7 | 90 | CC(NC(=O)C(C#N)=Cc1ccc2[nH]ccc2c1)c1ccccc1 (single isomer, unassigned) [Compound I10]
8 | 90 | O=C(NN=Cc1ccc(O)c(O)c1)C(=O)Nc1cccc(O)c1 [Compound E11]
9 | 70 | O=c1c2ccccc2nc2n1CCOC2=Cc1cccc(O)c1 [Compound F12]
10 | 45 | CN(C)c1ccc(NC(=O)C(=O)NN=Cc2ccc(O)c(O)c2)cc1 [Compound E10]
11 | > 100 | Oc1cc2ncc(-c3ccccc3)nc2cc1O [Compound G20]
12 | 100 | c1csc(-c2cnc3ccccc3n2)c1 [Compound G15]
13 | 100 | N#CC(C(=O)Nc1ccc(C(F)(F)F)cc1)=C(O)c1ccc(F)cc1 [Compound B12, 2-Propenamide, 2-cyano-3-hydroxy-3-(4-fluorophenyl)-N-[(4-trifluoromethyl)phenyl]]
14 | 125 | O=C(NN=Cc1ccc(O)cc1)C(=O)Nc1cccc([N+](=O)[O-])c1 [Compound E16]
15 | 90 | Cc1ccc2ncc(-c3ccccc3)nc2c1 [Compound G19]
16 | 100 | COc1cc2nc(-c3ccccc3)cnc2cc1O [Compound G17]
17 | 160 | CC(C)CC(O)=C(C#N)C(=O)Nc1ccc(C(F)(F)F)cc1 [Compound B18, 2-Hexeneamide, 2-cyano-3-hydroxy-5-methyl-N-[(4-trifluoromethyl)phenyl]]
18 | 100 | O=c1c2ccccc2nc2n1CCOC2=Cc1ccc(O)c(O)c1 [Compound F11]
19 | 180 | O=C(NN=Cc1ccccc1O)C(=O)Nc1cccc(O)c1 [Compound E12]
20 | 100 | N#CC(C(=O)Nc1ccc(C(F)(F)F)cc1)=C(O)C(c1ccccc1)c1ccccc1 [Compound B19, 2-Butenamide, 2-cyano-3-hydroxy-4,4-diphenyl-N-[(4-trifluoromethyl)phenyl]]
21 | > 100 | COc1ccccc1NC(=O)C(=O)NN=Cc1ccc(O)c(O)c1 [Compound E13]
22 | 50 | CN(C)CCCn1cc(C=C(C#N)C(=O)c2ccc(O)c(O)c2)c2ccccc21 [Compound D16]
23 | 70 | N#CC(=Cc1ccc(O)c(O)c1)c1[nH]nc(N)c1C#N [Compound C11]
24 | > 100 | N#CCCn1cc(C=C(C#N)C(=O)c2ccc(O)c(O)c2)c2ccccc21 [Compound D17]

Tested on: C6 cells
Experiment: C6 SRB growth assay
Format: cell-based, rat
Settings: Rattus norvegicus, C6; at 25 μM

Row | Compound | inhibition at 25 µM [%]
25 | Cc1noc(C)c1C(=O)NCc1ccc(C(F)(F)F)cc1 [Compound P22, N-4-trifluoromethlybenzy 3,5-dimethylisoxazole-4-carboxamide] | ~10

Same assay, conditions: Rattus norvegicus, C6; read-out: C6 SRB IC50

Row | Compound | IC50 [µM]
26 | CC(O)=C(C#N)C(=O)NCc1ccc(C(F)(F)F)cc1 [Compound P24, 1-trifluorometnlybenzylaminocarbonly-1-cyano-2-hydroxy propene] | 14
27 | Cc1noc(C)c1C(=O)NCc1ccc(C(F)(F)F)cc1 [Compound P22, N-4-trifluoromethlybenzy 3,5-dimethylisoxazole-4-carboxamide] | > 25
28 | Cc1oncc1C(=O)NCc1ccc(C(F)(F)F)cc1 [Compound P23] | 18
29 | N#CC(C(=O)N1CCOCC1)C(=S)Nc1ccccc1Cl (centres unmarked) [Compound P19, N-2-chlorophenyl (2-cyano-2-N-morpholinocarbonyl) thioacetamide] | > 50
